#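 Five concentrations, 48 hours, 96-well plates. At the TGI there is no net growth.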
# Key:
# Test in all cases: NCI-60 cell line screen, 48 h
# 786-0 renal = system: 786-0 renal
# A498 renal = system: A498 renal
# A549 NSCLC = system: A549 NSCLC
# ACHN renal = system: ACHN renal
# CAKI-1 renal = system: CAKI-1 renal
# CCRF-CEM leukemia = system: CCRF-CEM leukemia
# COLO 205 colon = system: COLO 205 colon
# DLD-1 colon = system: DLD-1 colon
# DMS 114 small cell lung = system: DMS 114 small cell lung
# DMS 273 small cell lung = system: DMS 273 small cell lung
# EKVX NSCLC = system: EKVX NSCLC
# HCC-2998 colon = system: HCC-2998 colon
# HCT-116 colon = system: HCT-116 colon
# HCT-15 colon = system: HCT-15 colon
# HL-60(TB) leukemia = system: HL-60(TB) leukemia
# HOP-18 NSCLC = system: HOP-18 NSCLC
# HOP-62 NSCLC = system: HOP-62 NSCLC
# HT29 colon = system: HT29 colon
# IGROV1 ovarian = system: IGROV1 ovarian
# K-562 leukemia = system: K-562 leukemia
# KM12 colon = system: KM12 colon
# KM20L2 colon = system: KM20L2 colon
# LOX IMVI melanoma = system: LOX IMVI melanoma
# LXFL 529 NSCLC = system: LXFL 529 NSCLC
# M14 melanoma = system: M14 melanoma
# M19-MEL melanoma = system: M19-MEL melanoma
# MALME-3M melanoma = system: MALME-3M melanoma
# MOLT-4 leukemia = system: MOLT-4 leukemia
# NCI-H226 lung = system: NCI-H226 lung
# NCI-H23 lung = system: NCI-H23 lung
# NCI-H460 lung = system: NCI-H460 lung
# NCI-H522 lung = system: NCI-H522 lung
# OVCAR-3 ovarian = system: OVCAR-3 ovarian
# OVCAR-4 ovarian = system: OVCAR-4 ovarian
# OVCAR-5 ovarian = system: OVCAR-5 ovarian
# OVCAR-8 ovarian = system: OVCAR-8 ovarian
# RXF 393 renal = system: RXF 393 renal
# SF-268 CNS = system: SF-268 CNS
# SF-295 CNS = system: SF-295 CNS
# SF-539 CNS = system: SF-539 CNS
# SK-MEL-2 melanoma = system: SK-MEL-2 melanoma
# SK-MEL-28 melanoma = system: SK-MEL-28 melanoma
# SK-MEL-5 melanoma = system: SK-MEL-5 melanoma
# SK-OV-3 ovarian = system: SK-OV-3 ovarian
# SN12C renal = system: SN12C renal
# SNB-19 CNS = system: SNB-19 CNS
# SNB-75 CNS = system: SNB-75 CNS
# SNB-78 CNS = system: SNB-78 CNS
# SR leukemia = system: SR leukemia
# SW-620 colon = system: SW-620 colon
# TK-10 renal = system: TK-10 renal
# U251 CNS = system: U251 CNS
# UACC-257 melanoma = system: UACC-257 melanoma
# UACC-62 melanoma = system: UACC-62 melanoma
# UO-31 renal = system: UO-31 renal
# XF 498 CNS = system: XF 498 CNS
# HOP-92 NSCLC = system: HOP-92 NSCLC
# RPMI-8226 leukemia = system: RPMI-8226 leukemia
# RXF-631 renal = system: RXF-631 renal
smiles,measurement,setting,value
COC(=O)C(C(=O)C(=O)Nc1ccc(C)cc1)c1nc2ccc([N+](=O)[O-])cc2[nH]c1=O (stereo not given),TGI,786-0 renal,> 100 µM
same,TGI,A498 renal,> 100 µM
same,TGI,A549 NSCLC,> 100 µM
same,TGI,ACHN renal,> 100 µM
same,TGI,CAKI-1 renal,> 100 µM
same,TGI,CCRF-CEM leukemia,> 100 µM
same,TGI,COLO 205 colon,> 100 µM
same,TGI,DLD-1 colon,> 100 µM
same,TGI,DMS 114 small cell lung,> 100 µM
same,TGI,DMS 273 small cell lung,> 100 µM
same,TGI,EKVX NSCLC,> 100 µM
same,TGI,HCC-2998 colon,> 100 µM
same,TGI,HCT-116 colon,> 100 µM
same,TGI,HCT-15 colon,> 100 µM
same,TGI,HL-60(TB) leukemia,> 100 µM
same,TGI,HOP-18 NSCLC,> 100 µM
same,TGI,HOP-62 NSCLC,> 100 µM
same,TGI,HT29 colon,> 100 µM
same,TGI,IGROV1 ovarian,> 100 µM
same,TGI,K-562 leukemia,> 100 µM
same,TGI,KM12 colon,> 100 µM
same,TGI,KM20L2 colon,> 100 µM
same,TGI,LOX IMVI melanoma,> 100 µM
same,TGI,LXFL 529 NSCLC,> 100 µM
same,TGI,M14 melanoma,> 100 µM
same,TGI,M19-MEL melanoma,> 100 µM
same,TGI,MALME-3M melanoma,> 100 µM
same,TGI,MOLT-4 leukemia,> 100 µM
same,TGI,NCI-H226 lung,> 100 µM
same,TGI,NCI-H23 lung,> 100 µM
same,TGI,NCI-H460 lung,> 100 µM
same,TGI,NCI-H522 lung,> 100 µM
same,TGI,OVCAR-3 ovarian,> 100 µM
same,TGI,OVCAR-4 ovarian,> 100 µM
same,TGI,OVCAR-5 ovarian,> 100 µM
same,TGI,OVCAR-8 ovarian,> 100 µM
same,TGI,RXF 393 renal,> 100 µM
same,TGI,SF-268 CNS,> 100 µM
same,TGI,SF-295 CNS,> 100 µM
same,TGI,SF-539 CNS,> 100 µM
same,TGI,SK-MEL-2 melanoma,> 100 µM
same,TGI,SK-MEL-28 melanoma,> 100 µM
same,TGI,SK-MEL-5 melanoma,> 100 µM
same,TGI,SK-OV-3 ovarian,> 100 µM
same,TGI,SN12C renal,> 100 µM
same,TGI,SNB-19 CNS,> 100 µM
same,TGI,SNB-75 CNS,> 100 µM
same,TGI,SNB-78 CNS,> 100 µM
same,TGI,SR leukemia,> 100 µM
same,TGI,SW-620 colon,> 100 µM
same,TGI,TK-10 renal,> 100 µM
same,TGI,U251 CNS,> 100 µM
same,TGI,UACC-257 melanoma,> 100 µM
same,TGI,UACC-62 melanoma,> 100 µM
same,TGI,UO-31 renal,> 100 µM
same,TGI,XF 498 CNS,> 100 µM
CC(=O)Nc1ccccc1-c1nc2ccccc2nc1-c1ccccc1,TGI,786-0 renal,> 100 µM
same,TGI,A498 renal,> 100 µM
same,TGI,A549 NSCLC,> 100 µM
same,TGI,ACHN renal,> 100 µM
same,TGI,CAKI-1 renal,> 100 µM
same,TGI,CCRF-CEM leukemia,> 100 µM
same,TGI,COLO 205 colon,> 100 µM
same,TGI,DLD-1 colon,> 100 µM
same,TGI,DMS 114 small cell lung,> 100 µM
same,TGI,DMS 273 small cell lung,> 100 µM
same,TGI,EKVX NSCLC,> 100 µM
same,TGI,HCC-2998 colon,> 100 µM
same,TGI,HCT-116 colon,> 100 µM
same,TGI,HCT-15 colon,> 100 µM
same,TGI,HL-60(TB) leukemia,> 100 µM
same,TGI,HOP-18 NSCLC,> 100 µM
same,TGI,HOP-62 NSCLC,> 100 µM
same,TGI,HOP-92 NSCLC,> 100 µM
same,TGI,HT29 colon,> 100 µM
same,TGI,IGROV1 ovarian,> 100 µM
same,TGI,K-562 leukemia,> 100 µM
same,TGI,KM12 colon,> 100 µM
same,TGI,KM20L2 colon,> 100 µM
same,TGI,LXFL 529 NSCLC,> 100 µM
same,TGI,M14 melanoma,> 100 µM
same,TGI,M19-MEL melanoma,> 100 µM
same,TGI,MOLT-4 leukemia,> 100 µM
same,TGI,NCI-H23 lung,> 100 µM
same,TGI,NCI-H460 lung,> 100 µM
same,TGI,OVCAR-3 ovarian,> 100 µM
same,TGI,OVCAR-4 ovarian,> 100 µM
same,TGI,OVCAR-8 ovarian,> 100 µM
same,TGI,RPMI-8226 leukemia,> 100 µM
same,TGI,RXF 393 renal,> 100 µM
same,TGI,SF-295 CNS,> 100 µM
same,TGI,SF-539 CNS,> 100 µM
same,TGI,SK-MEL-2 melanoma,> 100 µM
same,TGI,SK-MEL-28 melanoma,> 100 µM
same,TGI,SK-OV-3 ovarian,> 100 µM
same,TGI,SN12C renal,> 100 µM
same,TGI,SNB-19 CNS,> 100 µM
same,TGI,SNB-75 CNS,> 100 µM
same,TGI,SNB-78 CNS,> 100 µM
same,TGI,SR leukemia,> 100 µM
same,TGI,SW-620 colon,> 100 µM
same,TGI,U251 CNS,> 100 µM
same,TGI,UACC-257 melanoma,> 100 µM
same,TGI,UACC-62 melanoma,> 100 µM
same,TGI,UO-31 renal,> 100 µM
same,TGI,XF 498 CNS,> 100 µM
O=c1oc2cc(O)ccc2c2[nH]c3cc(O)ccc3c12,TGI,786-0 renal,> 100 µM
same,TGI,A498 renal,> 100 µM
same,TGI,A549 NSCLC,> 100 µM
same,TGI,ACHN renal,62.5 µM
same,TGI,CCRF-CEM leukemia,> 100 µM
same,TGI,COLO 205 colon,74.9 µM
same,TGI,DLD-1 colon,74.8 µM
same,TGI,DMS 114 small cell lung,53.8 µM
same,TGI,DMS 273 small cell lung,88.6 µM
same,TGI,EKVX NSCLC,90.1 µM
same,TGI,HCC-2998 colon,57 µM
same,TGI,HCT-116 colon,31.5 µM
same,TGI,HCT-15 colon,81.8 µM
same,TGI,HL-60(TB) leukemia,> 100 µM
same,TGI,HOP-18 NSCLC,> 100 µM
same,TGI,HOP-62 NSCLC,59.6 µM
same,TGI,HOP-92 NSCLC,95.4 µM
same,TGI,HT29 colon,> 100 µM
same,TGI,IGROV1 ovarian,57.9 µM
same,TGI,K-562 leukemia,> 100 µM
same,TGI,KM12 colon,53.1 µM
same,TGI,KM20L2 colon,> 100 µM
same,TGI,LOX IMVI melanoma,33.8 µM
same,TGI,LXFL 529 NSCLC,> 100 µM
same,TGI,M14 melanoma,> 100 µM
same,TGI,M19-MEL melanoma,98.7 µM
same,TGI,MALME-3M melanoma,> 100 µM
same,TGI,MOLT-4 leukemia,> 100 µM
same,TGI,NCI-H226 lung,78 µM
same,TGI,NCI-H23 lung,51.5 µM
same,TGI,NCI-H460 lung,96.4 µM
same,TGI,NCI-H522 lung,32.9 µM
same,TGI,OVCAR-3 ovarian,56.5 µM
same,TGI,OVCAR-4 ovarian,99.6 µM
same,TGI,OVCAR-8 ovarian,78.7 µM
same,TGI,RPMI-8226 leukemia,> 100 µM
same,TGI,RXF 393 renal,47.5 µM
same,TGI,SF-268 CNS,64.8 µM
same,TGI,SF-295 CNS,> 100 µM
same,TGI,SF-539 CNS,49.9 µM
same,TGI,SK-MEL-2 melanoma,50.2 µM
same,TGI,SK-MEL-28 melanoma,> 100 µM
same,TGI,SK-OV-3 ovarian,63.1 µM
same,TGI,SN12C renal,> 100 µM
same,TGI,SNB-19 CNS,> 100 µM
same,TGI,SNB-75 CNS,46.2 µM
same,TGI,SNB-78 CNS,> 100 µM
same,TGI,SR leukemia,> 100 µM
same,TGI,SW-620 colon,> 100 µM
same,TGI,TK-10 renal,> 100 µM
same,TGI,U251 CNS,> 100 µM
same,TGI,UACC-257 melanoma,> 100 µM
same,TGI,UACC-62 melanoma,31.7 µM
same,TGI,UO-31 renal,97.5 µM
same,TGI,XF 498 CNS,73.6 µM
CCCC(=O)OCC1OC2OC(C)(C)OC2C2OC(C)(C)OC12 (stereo not given),TGI,A498 renal,> 100 µM
same,TGI,A549 NSCLC,> 100 µM
same,TGI,ACHN renal,> 100 µM
same,TGI,CCRF-CEM leukemia,> 100 µM
same,TGI,DMS 273 small cell lung,> 100 µM
same,TGI,EKVX NSCLC,> 100 µM
same,TGI,HCT-116 colon,> 100 µM
same,TGI,HL-60(TB) leukemia,> 100 µM
same,TGI,HOP-62 NSCLC,> 100 µM
same,TGI,HOP-92 NSCLC,> 100 µM
same,TGI,HT29 colon,> 100 µM
same,TGI,IGROV1 ovarian,> 100 µM
same,TGI,KM12 colon,> 100 µM
same,TGI,M14 melanoma,> 100 µM
same,TGI,M19-MEL melanoma,> 100 µM
same,TGI,MOLT-4 leukemia,> 100 µM
same,TGI,NCI-H226 lung,> 100 µM
same,TGI,NCI-H23 lung,> 100 µM
same,TGI,NCI-H460 lung,> 100 µM
same,TGI,NCI-H522 lung,> 100 µM
same,TGI,OVCAR-5 ovarian,> 100 µM
same,TGI,OVCAR-8 ovarian,> 100 µM
same,TGI,RXF 393 renal,> 100 µM
same,TGI,RXF-631 renal,> 100 µM
same,TGI,SF-295 CNS,> 100 µM
same,TGI,SK-MEL-28 melanoma,> 100 µM
same,TGI,SK-OV-3 ovarian,> 100 µM
same,TGI,SNB-19 CNS,> 100 µM
same,TGI,SNB-78 CNS,> 100 µM
same,TGI,SR leukemia,> 100 µM
same,TGI,TK-10 renal,61.1 µM
same,TGI,U251 CNS,> 100 µM
same,TGI,UACC-257 melanoma,> 100 µM
same,TGI,UO-31 renal,> 100 µM

# From PubChem BioAssay (NCI)
